Laboratory results from ChEMBL document CHEMBL4359930, “Discovery of novel Cyclophilin D inhibitors starting from three dimensional fragments with millimolar potencies” (Bioorg Med Chem Lett, 2019).

Assay: Binding affinity to recombinant human CypD K175I mutant (44 to 207 residues) expressed in Escherichia coli cells assessed as dissociation constant by SPR analysis

Compared with `Cc1onc(-c2ccncc2)c1C(=O)O`, `CCn1nnc(NC(=O)c2ccccc2)n1` is lower in Kd: > 10000 µM for the first, 3900 µM for the second.

`CCN1Cc2cc3c(cc2NCCC1=O)OCO3` and `CCN1Cc2cc(NC(=O)CN3C(=O)C4C(C3=O)[C@H]3CC[C@@H]4C3)ccc2NCCC1=O` (stereo not given in full) cannot be ordered by Kd: 7500 µM for the first, > 6000 µM for the second.

Going from `O=C(NCc1ccc2c(c1)[C@@H]1C[C@H](N2)[C@H](O)CO1)C(=O)N1CCCC1` to `O=C(NCc1ccc2c(c1)[C@H]1C[C@@H](N2)[C@H](O)CO1)C(=O)N1CCCC1`, the Kd rises from 217 µM to > 1500 µM. The first binds more tightly here.

Compared with `Nc1ccc(CCNC(=O)CN2C(=O)C3C4CCC(C4)C3C2=O)cc1` (stereo not given), `O=C(CN1C(=O)[C@@H]2[C@@H]3CC[C@@H](C3)[C@@H]2C1=O)NCc1ccc2c(c1)[C@H]1C[C@@H](N2)[C@H](O)CO1` is lower in Kd: > 200 µM for the first, 0.66 µM for the second.

Going from `CSc1ccccc1[C@H]1CCCN1C(=O)CN(C)C(=O)NCc1ccc2c(c1)[C@H]1C[C@@H](N2)[C@H](O)CO1` to `CSc1ccccc1[C@H]1CCCN1C(=O)C(=O)NCc1ccc2c(c1)[C@H]1C[C@@H](N2)[C@H](O)CO1`, the Kd rises from 7 µM to 184 µM (26-fold).

First: CSc1ccccc1[C@H]1CCCN1C(=O)CNC(=O)CCc1ccc2c(c1)[C@@H]1C[C@H](N2)[C@H](O)CO1
Second: CSc1ccccc1[C@@H]1CCCN1C(=O)C(=O)NCc1ccc2c(c1)[C@H]1C[C@@H](N2)[C@H](O)CO1
The Kd of the first is lower: 39 µM for the first, > 240 µM for the second.

Going from `O=C(NCc1ccccn1)C(=O)NC1CCCC1` to `CCN1Cc2cc(CNC(=O)NCC(=O)N3CCC[C@@H]3c3ccccc3SC)ccc2NCCC1=O`, the Kd falls from 1100 µM to 0.18 µM (6100-fold). The second binds more tightly here.

Going from `CCN1Cc2cc(CCC(=O)NCCC(=O)N3CCC[C@@H]3c3ccccc3SC)ccc2NCCC1=O` to `CCN1Cc2cc(CCC(=O)NCC(=O)N3CCC[C@@H]3c3ccccc3SC)ccc2NCCC1=O`, the Kd falls from 420 µM to 2.3 µM (180-fold).

Compared with `CCN1Cc2cc(NC(=O)NCC(=O)N3CCC[C@@H]3c3ccccc3SC)ccc2NCCC1=O`, `O=C(CN1C(=O)[C@@H]2[C@H]3CC[C@H](C3)[C@@H]2C1=O)NCc1ccc2c(c1)[C@H]1C[C@@H](N2)[C@H](O)CO1` is 220-fold lower in Kd: 260 µM for the first, 1.2 µM for the second. The second binds more tightly here.

First: O[C@@H]1CO[C@@H]2C[C@H]1Nc1ccc(F)cc12
Second: O=C(O)CN1C(=O)[C@@H]2[C@@H]3CC[C@@H](C3)[C@@H]2C1=O
The Kd of the first is lower: 7100 µM for the first, > 10000 µM for the second. The first binds more tightly here.
